Where a name gives a salt, the structure may show the parent alone. Read-outs that look alike come from different tables or passages of the source.
Assays:
[1] = 14-membered ring
TYK2 JH1 = TYK2 JH1 (Homo sapiens (Human), UniProt P29597); experiment: TYK2 JH1 binding (Kd, Table 2); conditions: JH1 domain
JAK1 JH2 = JAK1 JH2 (Homo sapiens (Human), UniProt P23458); experiment: JAK1 JH2 binding (Kd, Table 2); conditions: JH2 domain
[2] = molecular target: human TYK2 (JH2domain-pseudokinase) (Homo sapiens (Human), UniProt P29597); experiment: TYK2 JH2 domain binding assay (KINOMEscan)
Method: Binding constants for the compounds described herein against the JH2 domain were determined by the following protocol for a KINOMEscan® assay (DiscoveRx). A fusion protein of a partial length construct of human TYK2 (JH2domain-pseudokinase) (amino acids G556 to D888 based on reference sequence NP_003322.3) and the DNA binding domain of NFkB was expressed in transiently transfected HEK293 cells. From these HEK 293 cells, extracts were prepared in M-PER extraction buffer (Pierce) in the presence of Protease Inhibitor Cocktail Complete (Roche) and Phosphatase Inhibitor Cocktail Set II (Merck) per manufacturers' instructions. The TYK2 (JH2domain-pseudokinase) fusion protein was labeled with a chimeric double-stranded DNA tag containing the NFkB binding site fused to an amplicon for qPCR readout, which was added directly to the expression extract (the final concentration of DNA-tag in the binding reaction is 0.1 nM).
Streptavidin-coated magnetic beads (Dynal M280) were treated with a biotinylated small molecule ligand for 30 minutes at room temperature to generate affinity resins the binding assays. The liganded beads were blocked with excess biotin and washed with blocking buffer (SeaBlock (Pierce), 1% BSA, 0.05% Tween 20, 1 mM DTT) to remove unbound ligand and to reduce nonspecific binding.
The binding reaction was assembled by combining 16 μl of DNA-tagged kinase extract, 3.8 μl liganded affinity beads, and 0.18 μl test compound (PBS/0.05% Tween 20/10 mM DTT/0.1% BSA/2 μg/ml sonicated salmon sperm DNA)]. Extracts were used directly in binding assays without any enzyme purification steps at a ≥10,000-fold overall stock dilution (final DNA-tagged enzyme concentration <0.1 nM). Extracts were loaded with DNA-tag and diluted into the binding reaction in a two-step process. First extracts were diluted 1:100 in 1×binding buffer (PBS/0.05% Tween 20/10 mM DTT/0.1% BSA/2 […] sonicated salmon sperm DNA) containing 10 nM DNA-tag. This dilution was allowed to equilibrate at room temperature for 15 minutes and then subsequently diluted 1:100 in 1× binding buffer. Test compounds were prepared as 111× stocks in 100% DMSO. Kds were determined using an 11-point 3-fold compound dilution series with three DMSO control points. All compounds for Kd measurements were distributed by acoustic transfer (non-contact dispensing) in 100% DMSO. The compounds were then diluted directly into the assays such that the final concentration of DMSO was 0.9%. All reactions were performed in polypropylene 384-well plates. Each was a final volume of 0.02 mL. Assays were incubated with shaking for 1 hour at room temperature. Then the beads were pelleted and washed with wash buffer (1×PBS, 0.05% Tween 20) to remove displaced kinase and test compound. The washed based were resuspended in elution buffer (1 λPBS, 0.05% Tween […] non-biotinylated affinity ligand) and incubated at room temperature with shaking for 30 minutes. The kinase concentration in the eluates was measured by qPCR. qPCR reactions were assembled by adding 2.5 μL of kinase eluate to 7.5 μL of qPCR master mix containing […] amplicon primers and 0.15 μM amplicon probe. The qPCR protocol consisted of a 10 minute hot start at 95° C., followed by 35 cycles of 95° C. for 15 seconds, 60° C. for 1 minute.
Test compounds were prepared as 111× stocks in 100% DMSO. Kds were determined using an 11-point 3-fold compound dilution series with three DMSO control points. All compounds for Kd measurements were distributed by acoustic transfer (non-contact dispensing) in 100% DMSO. The compounds were then diluted directly into the assays such that the final concentration of DMSO was 0.9%. The Kds were determined using a compound top concentration of 30,000 nM. Kd measurements were performed in duplicate.
Binding constants (Kds) were calculated with a standard dose-response curve using the Hill equation: […]
The Hill Slope was set to −1. […]

Sequence of JAK1 JH2 (P23458 583-855): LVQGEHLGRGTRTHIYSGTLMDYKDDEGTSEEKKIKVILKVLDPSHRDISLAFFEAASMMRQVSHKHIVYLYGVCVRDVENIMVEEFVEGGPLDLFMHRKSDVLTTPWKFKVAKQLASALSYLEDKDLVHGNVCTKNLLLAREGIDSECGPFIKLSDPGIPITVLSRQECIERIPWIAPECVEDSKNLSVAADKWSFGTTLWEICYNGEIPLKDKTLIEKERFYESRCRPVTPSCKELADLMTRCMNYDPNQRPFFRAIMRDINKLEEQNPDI
Sequence of TYK2 JH1 (P29597 897-1176): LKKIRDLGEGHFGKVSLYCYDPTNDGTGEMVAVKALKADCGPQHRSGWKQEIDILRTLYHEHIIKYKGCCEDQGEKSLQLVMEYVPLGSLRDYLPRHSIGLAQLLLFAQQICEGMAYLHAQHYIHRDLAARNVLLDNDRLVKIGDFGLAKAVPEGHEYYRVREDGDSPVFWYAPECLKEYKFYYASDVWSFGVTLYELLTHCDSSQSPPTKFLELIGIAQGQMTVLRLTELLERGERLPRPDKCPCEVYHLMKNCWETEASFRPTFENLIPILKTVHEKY
Sequence of human TYK2 (JH2domain-pseudokinase) (P29597 556-888): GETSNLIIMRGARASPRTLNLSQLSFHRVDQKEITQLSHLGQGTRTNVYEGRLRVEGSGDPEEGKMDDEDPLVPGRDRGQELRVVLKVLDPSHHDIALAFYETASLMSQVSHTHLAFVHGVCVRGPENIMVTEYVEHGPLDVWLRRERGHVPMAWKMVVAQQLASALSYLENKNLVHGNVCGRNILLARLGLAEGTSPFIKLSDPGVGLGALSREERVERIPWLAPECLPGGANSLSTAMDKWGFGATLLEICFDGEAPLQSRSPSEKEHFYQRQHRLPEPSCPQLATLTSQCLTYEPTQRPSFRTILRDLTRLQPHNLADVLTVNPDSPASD

| Compound | Kd (TYK2 JH1) [µM] | Kd (JAK1 JH2) [µM] | Kd [2] [µM] | other results |
| --- | --- | --- | --- | --- |
| CNc1nc2cnc3cn2c1C(=O)N[C@H](C)COCc1cc(c2nnn(C)c2c1)N3 |  |  |  | ring closure, isolated yield ([1]; from CNc1nc2cnc(Br)cn2c1C(=O)N[C@H](C)COCc1cc(N)c2nnn(C)c2c1, cn_pd bond, RuPhos Pd G3/Cs2CO3, dioxane, 62.0 mM, 100.0 °C, 16.0 h): 10% |
| C[C@@H]1COCc2cc(c3nnn(C)c3c2)Nc2cc(N(C)C(=O)OC(C)(C)C)c3ncc(n3n2)C(=O)N1 |  |  |  | ring closure, isolated yield ([1]; from C[C@H](COCc1cc(N)c2nnn(C)c2c1)NC(=O)c1cnc2c(N(C)C(=O)OC(C)(C)C)cc(Cl)nn12, cn_pd bond, Pd2(dba)3/BINAP/Cs2CO3, dioxane, 50.0 mM, 16.0 h): 50% |
| C[C@@H]1COCc2cc(c3nnn(C)c3c2)Nc2cc(N(C)C(=O)OC(C)(C)C)n3ncc(c3n2)C(=O)O1 |  |  |  | ring closure, isolated yield ([1]; from C[C@@H](O)COCc1cc(Nc2cc(N(C)C(=O)OC(C)(C)C)n3ncc(C(=O)O)c3n2)c2nnn(C)c2c1, ester bond, DIAD/PPh3, DCM, 20.0 mM, 16.0 h): 52% |
| C[C@@H]1COCc2cc(cn3ccnc23)Nc2cc(N(C)C(=O)OC(C)(C)C)c3ncc(n3n2)C(=O)N1 |  |  |  | ring closure, isolated yield ([1]; from C[C@H](COCc1cc(N)cn2ccnc12)NC(=O)c1cnc2c(N(C)C(=O)OC(C)(C)C)cc(Cl)nn12, cn_pd bond, Pd2(dba)3/Xantphos/Cs2CO3, 1,4-dioxane, 80.0 °C): 34% |
| C[C@@H]1COc2ccnc3cnc(cc23)Nc2cc(N(C)C(=O)OC(C)(C)C)c3ncc(n3n2)C(=O)N1 |  |  |  | ring closure, isolated yield ([1]; from C[C@H](COc1ccnc2cnc(N)cc12)NC(=O)c1cnc2c(N(C)C(=O)OC(C)(C)C)cc(Cl)nn12, cn_pd bond, Pd2(dba)3/Xantphos/Cs2CO3, 1,4-dioxane, 57.0 mM, 80.0 °C, 16.0 h): 54% |
| CNc1cc2nn3c(cnc13)C(=O)N[C@H](C)C(C)OCc1cc(c3nnn(C)c3c1)N2 (stereo partly shown) [Compound 90] | ≥ 30 | 0.01 to 1 | < 0.01 |  |
| CNc1cc2nc3c(cnn13)C(=O)N[C@H](CO)COCc1cc(c3nnn(C)c3c1)N2 [Compound 91] | 0.01 to 1 | 1 to 10 | < 0.01 |  |
| (14R)-19-[(4-methoxyphenyl)methyl]-21-([(4-methoxyphenyl)methyl](methyl)amino-7,14-dimethyl-12-oxa-2,5,6,7,15,18,19,22,23-nonaazapentacyclo[15.5.2.1^(3,10.0^(4,8.0^(20,24]pentacosa-1(23),3(25),4(8),5,9,17,20(24),21-octaen-16-one |  |  |  | ring closure, isolated yield ([1]; cn_pd bond, Pd2(dba)3/Xantphos/Cs2CO3, 1,4-dioxane, 36.5 mM, 100.0 °C): 74% |
| (R,1^3E,1^4E)-3′,7-Dimethyl-1^7-(methylamino)-3^1H-5-oxa-2,8-diaza-1(5,3)-pyrazolo[1,5-a]pyrimidina-3(7,5)-indazolacyclononaphan-9-one [Compound 13] | 1 to 10 | 10 to 30 | < 0.01 |  |
| tert-Butyl ((7R,E)-7-(hydroxymethyl)-3^1-methyl-9-oxo-3^1H-5-oxa-2,8-diaza-1(6,3),3(4,6)-diimidazo[1,2-b]pyridazinacyclononaphane-1^8-yl)(methyl)carbamate |  |  |  | ring closure, isolated yield ([1]; cn_pd bond, Pd2(dba)3/BINAP/Cs2CO3, dioxane, 10.0 mM): 25% |

Further lines, with some results ahead:

| Kd (TYK2 JH1) [µM] | Kd (JAK1 JH2) [µM] | Kd [2] [µM] | Compound | other results |
| --- | --- | --- | --- | --- |
| ≥ 30 | 10 to 30 | < 0.01 | CNc1cc2nc3c(cnn13)C(=O)NC(C(F)(F)F)COCc1cc(c3nnn(C)c3c1)N2 (stereo not shown) [Compound 92] |  |
| ≥ 30 | 1 to 10 | < 0.01 | CNc1cc2nc3c(cnn13)C(=O)N[C@H](C)[C@H](C)OCc1cc(c3c(c1)nnn3C)N2 [Compound 93] |  |
| ≥ 30 | 10 to 30 | < 0.01 | CNc1cc2nc3c(cnn13)C(=O)N[C@H](C)[C@@H](C)OCc1cc(c3c(c1)nnn3C)N2 [Compound 94] |  |
| ≥ 30 | ≥ 30 | < 0.01 | CNc1cc2nc3c(cnn13)C(=O)NC(C(F)(F)F)COCc1cc(c3c(c1)nnn3C)N2 (stereo not shown) [Compound 95] |  |
| 1 to 10 | 0.01 to 1 | < 0.01 | CNc1cc2nn3c(cnc13)C(=O)N[C@H](C)COCc1cc(cc3[nH]ncc13)N2 [Compound 96, (14R)-14-methyl-21-(methylamino)-12-oxa-2,6,7,15,19,23,24-heptaazapentacyclo[15.5.2.1^(3,10.0^(5,9.0^(20,24]pentacosa-1(23),3(25),4,7,9,17,19,21-octaen-16-one hydrochloride] |  |
| 1 to 10 | 0.01 to 1 | < 0.01 | CNc1cc2nn3c(cnc13)C(=O)N[C@H](C)COCc1cc(cc3nc[nH]c13)N2 [Compound 97, (14R)-14-methyl-21-(methylamino)-12-oxa-2,6,8,15,19,23,24-heptaazapentacyclo[15.5.2.1^(3,10.0^(5,9.0^(20,24]pentacosa-1(23),3(25),4,6,9,17,19,21-octaen-16-one hydrochloride] |  |
| 0.01 to 1 | 0.01 to 1 | < 0.01 | CNc1cc2nn3c(cnc13)C(=O)N[C@H](C)COCc1cc(cc3cn[nH]c13)N2 [Compound 98] |  |

Source: patent US20250213571A1, “TYK2 INHIBITORS AND USES THEREOF” (Alumis Inc., priority 2022, published 2025)
